For series [1], the system named is SW-620. The series can be described thus: Cytotoxicity against human SW620 cells assessed as inhibition of cell proliferation after 48 hrs by XTT assay. Type of series: functional, cell-based. As to conditions: SW-620, 48 h. (In general: Tetrazolium dyes change colour on reduction, which living cells bring about.)
Series [2] concerns ASPC1. Put plainly: Cytotoxicity against human AsPC1 cells assessed as inhibition of cell proliferation after 48 hrs by XTT assay. Type of series: functional, cell-based. As to conditions: ASPC1, 48 h.
Series [3] relates to MDA-MB-231. Put plainly: Cytotoxicity against human MDA-MB-231 cells assessed as inhibition of cell proliferation after 48 hrs by XTT assay. Type of series: functional, cell-based. As to conditions: MDA-MB-231, 48 h.
The nature of series [4]: Kinetic solubility of the compound in water containing 5% DMSO at pH 6.8. Type of series: physicochemical. As to conditions: read-out: Kinetic_solubility.
Series [5] relates to NCI-H460. The series can be described thus: Cytotoxicity against human NCI-H460 cells assessed as inhibition of cell proliferation after 48 hrs by XTT assay. As to conditions: NCI-H460, 48 h. In kind it is functional, cell-based.
Series [6] in a line: Cytotoxicity against mouse B16F10 cells assessed as inhibition of cell proliferation after 48 hrs by XTT assay. In kind it is functional, cell-based. As to conditions: B16-F10, 48 h.

SMILES strings stand for the structures. Converted amounts (≈) assume the structure as drawn.

As usually defined, the IC50 is the concentration at which inhibition is half-maximal. As for `CC(C)=CCc1c(O)cc2oc3cc(O)c(O)c(CC=C(C)C)c3c(=O)c2c1O`, the IC50 in series [1] was 5.69 µM; in series [2] (read-out: IC50) it was 5.92 µM; in series [3], 5.87 µM; in series [5], 4.48 µM. Besides, in series [4], the solubility kinetic came out at 94 µM (≈ 37.3 µg/mL).
With `COc1c(OC(C)=O)cc2oc3cc(O)c(CC=C(C)C)c(O)c3c(=O)c2c1CC=C(C)C`, the concentration for half-maximal inhibition (IC50) in series [1] was determined as 10.9 µM; in series [2] (read-out: IC50), 13.9 µM; in series [3], 12.9 µM; in series [6], 13.1 µM; in series [5], 12.6 µM. The solubility kinetic in series [4] came out at 148 µM (≈ 67 µg/mL).
For `COc1c(OCC(=O)O)cc2oc3cc(O)c(CC=C(C)C)c(O)c3c(=O)c2c1CC=C(C)C`, the IC50 in series [1] was 46.6 µM; in series [2] (read-out: IC50), 52.8 µM; in series [3], over 100 µM; in series [6], 28.6 µM; in series [5], 54.6 µM.
Consider `COc1c(OCC(=O)O)cc2oc3cc(OCC(=O)O)c(CC=C(C)C)c(O)c3c(=O)c2c1CC=C(C)C`, for which the half-maximal inhibitory concentration (IC50) is over 100 µM in series [1]; over 100 µM in series [2] (read-out: IC50); over 100 µM in series [3]; 95.8 µM in series [6]; over 100 µM in series [5].
As to `C=CCOc1cc2oc3cc(O)c(CC=C(C)C)c(O)c3c(=O)c2c(CC=C(C)C)c1OC`, the IC50 came to 12.1 µM in series [1]; 21.3 µM in series [2] (read-out: IC50); 17.9 µM in series [3]; 16.5 µM in series [6]; 12.2 µM in series [5]. Besides, the solubility kinetic in series [4] was 149 µM (≈ 67.1 µg/mL).
On to `COc1c(OS(=O)(=O)C(F)(F)F)cc2oc3cc(OS(=O)(=O)C(F)(F)F)c(CC=C(C)C)c(O)c3c(=O)c2c1CC=C(C)C`, for which the IC50 in series [1] worked out at 9.01 µM; in series [2] (read-out: IC50), 13.8 µM; in series [3], 16.9 µM; in series [6], 15.3 µM; in series [5] it was 22.4 µM.
In the same order, the values of `C=CCOc1cc2oc3cc(OC)c(CC=C(C)C)c(O)c3c(=O)c2c(CC=C(C)C)c1OC` are over 100 µM, over 100 µM, over 100 µM, over 100 µM and over 100 µM.
With `C=CCOc1cc2oc3cc(OCC=C)c(OC)c(CC=C(C)C)c3c(=O)c2c(OC)c1CC=C(C)C`, the IC50 was found to be 44.6 µM in series [1]; 25.8 µM in series [2] (read-out: IC50); 28 µM in series [3]; 41 µM in series [6]; 14.6 µM in series [5].
On to `COc1c(O)cc2oc3cc(O)c(CC=C(C)C)c(OC)c3c(=O)c2c1CC=C(C)C`, for which the IC50 came to 18.2 µM in series [1]; 13.9 µM in series [2] (read-out: IC50); 20.8 µM in series [3]; 16.6 µM in series [6]; 10.8 µM in series [5]. Besides, in series [4], the solubility kinetic amounted to 104 µM (≈ 44.1 µg/mL).
In the case of `COc1ccc2oc3cc(O)c(CCC(C)C)c(O)c3c(=O)c2c1CCC(C)C`, the concentration for half-maximal inhibition (IC50) in series [1], in series [2] (read-out: IC50), in series [3], in series [6] and in series [5] was over 100 µM each time.
For the molecule `COc1ccc2oc3ccc(CCC(C)C)c(O)c3c(=O)c2c1CCC(C)C`, the IC50 in series [1], in series [2] (read-out: IC50), in series [3], in series [6] and in series [5] was over 100 µM each time.
As to `COc1c(N)cc2oc3ccc(CCC(C)C)c(O)c3c(=O)c2c1CCC(C)C`, the IC50 in series [1] worked out at 15.9 µM; in series [2] (read-out: IC50) it was 31.3 µM; in series [3], 30.9 µM; in series [6] it was 14.4 µM; in series [5] it was 17.6 µM. Also, the solubility kinetic in series [4] was 138 µM (≈ 54.9 µg/mL).
On to `COc1c(O)cc2oc3cc(O)c(CCC(C)C)c(O)c3c(=O)c2c1CCC(C)C`, for which the IC50 worked out at 6.42 µM in series [1]; 4.64 µM in series [2] (read-out: IC50); 4.91 µM in series [3]; 6.54 µM in series [6]; 4.17 µM in series [5]. Further, the solubility kinetic in series [4] came to 78 µM (≈ 32.3 µg/mL).
Regarding `COc1c(O)cc2oc3c([N+](=O)[O-])c(O)c(CCC(C)C)c(O)c3c(=O)c2c1CCC(C)C`, the IC50 in series [1] is 22.6 µM; in series [2] (read-out: IC50), 31.8 µM; in series [3] it was 29 µM; in series [5], 16.8 µM. In series [4], the solubility kinetic was 339 µM (≈ 156 µg/mL).
`COc1c(O)cc2oc3c(N)c(O)c(CCC(C)C)c(O)c3c(=O)c2c1CCC(C)C`: the IC50 in series [1] stood at 6.24 µM; in series [2] (read-out: IC50) it was 13 µM; in series [3] it was 17.6 µM; in series [6], 12.3 µM; in series [5], 15.1 µM.
For the molecule `COc1c(O)cc2oc3c(Cl)c(O)c(CCC(C)C)c(O)c3c(=O)c2c1CCC(C)C`, the IC50 turned out to be 9.59 µM in series [1]; 19.3 µM in series [2] (read-out: IC50); 10.1 µM in series [3]; 12.4 µM in series [6]; 9.96 µM in series [5]. Further, in series [4], the solubility kinetic came out at 381 µM (≈ 171 µg/mL).
Consider `C#CCOc1c(O)cc2oc3cc(O)c(CC=C(C)C)c(O)c3c(=O)c2c1CC=C(C)C`, for which the IC50 in series [1], in series [2] (read-out: IC50), in series [3] and in series [5] was over 100 µM in each case.
With `CC(C)=CCc1c(O)cc2oc3cc(O)c(OCc4cn(CC(=O)OC(C)(C)C)nn4)c(CC=C(C)C)c3c(=O)c2c1O`, the IC50 in series [1], in series [2] (read-out: IC50), in series [3] and in series [5] was over 100 µM in each case.
Turning to `C=CCOc1cc2oc3cc(OCC=C)c(OC)c(CC=C(C)C)c3c(=O)c2c(O)c1CC=C(C)C`, the IC50 in series [1], in series [2] (read-out: IC50), in series [3], in series [6] and in series [5] was over 100 µM in each case.
Regarding `COc1c(O)cc2oc3cc4c(c(O)c3c(=O)c2c1CC=C(C)C)CCC(C)(C)O4`, the IC50 in series [1], in series [2] (read-out: IC50), in series [3], in series [6] and in series [5] was over 100 µM each time.
Consider `COc1c(OC(C)=O)cc2oc3cc(OC(C)=O)c(CC=C(C)C)c(O)c3c(=O)c2c1CC=C(C)C`, for which the IC50 in series [1] was 22.7 µM; in series [2] (read-out: IC50) it was 14.2 µM; in series [3] it was 17.4 µM; in series [6], 15.1 µM; in series [5], 12.5 µM. For the same molecule, in series [4], the solubility kinetic came out at 122 µM (≈ 60.3 µg/mL).
As for `COc1cccc2c1C(=O)c1c(O)c3c(c(O)c1C2=O)C[C@@](O)(C(=O)CO)C[C@@H]3O[C@H]1C[C@H](N)[C@H](O)[C@H](C)O1` [DOXORUBICIN], the IC50 came out at 0.12 µM in series [1]; 1.87 µM in series [2]; 0.98 µM in series [3]; 0.12 µM in series [6]; 0.08 µM in series [5].
Turning to `COc1c(O)cc2oc3cc4c(c(O)c3c(=O)c2c1CC=C(C)C)C=CC(C)(C)O4` [MANGOSTANIN], the IC50 in series [1] was 26.1 µM; in series [2] (read-out: IC50) it was 25.5 µM; in series [3] it was 21.1 µM; in series [6], 26.2 µM; in series [5] it was 19.7 µM.
With `COc1c(O)cc2oc3cc(O)c(CC=C(C)C)c(O)c3c(=O)c2c1CC=C(C)C` [MANGOSTIN], the IC50 in series [1] was 2.97 µM; in series [2] (read-out: IC50), 4.02 µM; in series [3], 3.04 µM; in series [6], 3.23 µM; in series [5], 3.23 µM. In series [4], the solubility kinetic is 20 µM (≈ 8.21 µg/mL).

The values are drawn from ChEMBL document CHEMBL3259560, “Synthesis of xanthone derivatives based on α-mangostin and their biological evaluation for anti-cancer agents” (Bioorg Med Chem Lett, 2014).
